Laboratory results published in patent publication US20030225007A1, “Sulfonamide derivatives of 3-substituted imidazol[1,2-d]-1,2,4-thiadiazoles and 3-substituted-[1,2,4] thiadiazolo[4,5-a] benzimidazole as inhibitors of fibrin cross-linking and transglutaminases” (Apotex Inc., priority 2002, published 2003).

Each molecule was assayed against T1, Factor XIIIa (activated FXIII) (Homo sapiens, UniProt P00488) (assay: Inactivation of purified Factor XIIIa (monodansylcadaverine incorporation into dimethylcasein, fluorescence)). Details: purified Factor XIIIa; method of Kitz and Wilson; read-out: Second order rate constant for inactivation.
T1 construct: purchased Enzyme Research Laboratories, Ltd
T1 sequence (P00488 39-732 limits assumed): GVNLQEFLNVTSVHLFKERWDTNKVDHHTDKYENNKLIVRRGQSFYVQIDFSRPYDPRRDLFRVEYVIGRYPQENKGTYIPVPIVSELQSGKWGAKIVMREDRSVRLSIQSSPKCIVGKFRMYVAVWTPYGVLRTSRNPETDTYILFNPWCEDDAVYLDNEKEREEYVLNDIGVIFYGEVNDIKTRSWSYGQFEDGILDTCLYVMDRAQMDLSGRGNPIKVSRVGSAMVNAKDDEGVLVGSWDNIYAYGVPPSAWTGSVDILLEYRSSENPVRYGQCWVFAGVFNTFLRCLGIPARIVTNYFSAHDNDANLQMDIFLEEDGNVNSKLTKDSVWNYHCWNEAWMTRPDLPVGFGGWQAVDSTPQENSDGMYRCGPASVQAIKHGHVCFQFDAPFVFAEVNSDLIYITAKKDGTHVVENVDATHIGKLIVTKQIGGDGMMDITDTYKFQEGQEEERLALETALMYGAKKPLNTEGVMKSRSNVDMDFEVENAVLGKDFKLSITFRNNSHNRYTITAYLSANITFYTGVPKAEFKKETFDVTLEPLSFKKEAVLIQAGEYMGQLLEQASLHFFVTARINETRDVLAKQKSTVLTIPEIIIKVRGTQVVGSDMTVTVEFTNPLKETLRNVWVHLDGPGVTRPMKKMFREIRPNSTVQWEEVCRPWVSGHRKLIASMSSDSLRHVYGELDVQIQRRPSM
Assay type: biochemical
Experimental: FXIII (0.5 mg/mL, Enzyme Research Laboratories, Ltd.) in 50 mM Tris-HCl pH 7.5 containing 100 mM NaCl, 40 mM CaCl2, 1 mM EDTA and 0.1% poly(ethylene glycol) (app. MW=8000) was activated by incubation with 10 NIH units/mL of human thrombin (Calbiochem) at 37° C. for 20 min. Thrombin was quenched with 20 NIH units/mL of hirudin from Leech (Sigma).
Inhibitor solution in DMSO (14 μL) was added to 120 μL of 250 mM Tris-Cl pH 7.5 containing 40 mM CaCl2 and 1 mM EDTA and the solution was incubated at 37° C. for two minutes. Activated FXIII (5 μL, 0.5 mg/mL) was added and the mixture was incubated at 37° C. for 5 min.
An assay mixture composed of 50 mM Tris-Cl pH 8.0, 10 mM CaCl2, 1 mM EDTA, 0.1% poly(ethylene glycol) (app. MW=1000) and 20 μM monodansylcadaverine was prepared in a spectrofluorometric cell in a final volume of 2880 μL. Dimethylcasein (8 μL, 1% in 50 mM sodium phosphate pH 7.5) was added and the solution was incubated at 37° C. for a few minutes. To assay the residual enzyme activity, 120 μL of the solution containing the enzyme and the inhibitor was transferred to the assay mixture. The covalent incorporation of monodansylcadaverine into casein was monitored by an increase in fluorescence at λexc=360 nm and λem=500 nm as previously described (Curtis, C. G.; Lorand, L. Methods Enzymol. 1976, 45, 177-191). To determine uninhibited enzyme activity, DMSO was used in place of inhibitor solution in the above assay. IC50 were determined by plotting the percent of remaining enzyme activity against logarithm of inhibitor concentration. IC50 is defined here as an inhibitor concentration resulting in 50% enzyme inactivation after 5-min incubation of the enzyme with the inhibitor in the absence of the substrate. Second order rate constants for inactivation were determined using method described by Kitz and Wilson (Kitz, R.; Wilson, I. J. Biol. Chem. 1962, 237, 3245).

Row | kinact/KI [M⁻¹ s⁻¹] | Molecule
1 | 13000 | O=S(=O)(NCCCCCCNc1nsc2nccn12)c1ccc(Br)cc1Br [2,4-dibromo-N-[6-(imidazo[1,2-d][1,2,4]thiadiazol-3-ylamino)hexyl]benzenesulfonamide]

Same assay, conditions: purified activated FXIII; 50% enzyme inactivation after 5-min incubation with inhibitor at 37° C. in the absence of substrate; read-out: FXIIIa (IC50 in μM)

Row | Molecule | IC50 [µM]
2 | 4-benzyl-{N^ε-imidazo[1,2-d][1,2,4]thiadiazol- 3-yl-N^α-[(4- methylphenyl)sulfonyl]lysyl}piperidine | 5.6
3 | NC(=O)CN(CCCCCCNc1nsc2nccn12)S(=O)(=O)c1cccc2ccccc12 [1 / NH2 / 1-naphthyl, N^2-[6-(imidazo[1,2-d][1,2,4]thiadiazol-3-ylamino)hexyl]-N^2-(1-naphthylsulfonyl)glycinamide] | 6
4 | NC(=O)CCN(CCCCCCNc1nsc2nccn12)S(=O)(=O)c1ccc(F)cc1F [2 / NH2 / 2-F-4-F-Ph, N^3-[(2,4-difluorophenyl)sulfonyl]-N^3-[6-(imidazo[1,2-d][1,2,4]thiadiazol-3-ylamino)hexyl]-β-alaninamide] | 8.9
5 | CCOC(=O)CCN(CCCCCCNc1nsc2nccn12)S(=O)(=O)c1ccc(F)cc1F [2 / OEt / 2-F-4-F-Ph, Ethyl N-[(2,4-difluorophenyl)sulfonyl]-N-[6-(imidazo[1,2-d][1,2,4]thiadiazol-3-ylamino)hexyl]-β-alaninate] | 6.8
6 | Cc1cc(C)c(S(=O)(=O)NCCCCCCNc2nsc3nccn23)c(C)c1 [2,4,6-TriMe-Ph, N-[6-(imidazo[1,2-d][1,2,4]thiadiazol-3-ylamino)hexyl]-2,4,6-trimethylbenzenesulfonamide] | 1.3
7 | N#Cc1ccccc1S(=O)(=O)NCCCCCCNc1nsc2nccn12 [2-CN-Ph, 2-cyano-N-[6-(imidazo[1,2-d][1,2,4]thiadiazol-3-ylamino)hexyl]benzenesulfonamide] | 2.7
8 | COC(=O)c1ccccc1S(=O)(=O)NCCCCCCNc1nsc2nccn12 [2-COOMe-Ph, N-[6-(imidazo[1,2-d][1,2,4]thiadiazol-3-ylamino)hexyl]2-methoxycarbonylbenzenesulfonamide] | 3.2
9 | O=S(=O)(NCCCCCCNc1nsc2nccn12)c1c(F)ccc(Br)c1F [2-F-3-Br-6-F-Ph, 3-bromo-2,6-difluoro-N-[6-(imidazol[1,2-d][1,2,4]thiadiazol-3-ylamino)hexyl]benzenesulfonamide] | 2.1
10 | COc1cc(C)c(S(=O)(=O)NCCCCCCNc2nsc3nccn23)c(C)c1C [2-Me-3-Me-4-OMe-6-Me-Ph, N-[6-(imidazo[1,2-d][1,2,4]thiadiazol-3-ylamino)hexyl]-4-methoxy-2,3,6-trimethylbenzenesulfonamide] | 14
11 | O=[N+]([O-])c1cc(C(F)(F)F)ccc1S(=O)(=O)NCCCCCCNc1nsc2nccn12 [2-NO2-4-CF3-Ph, N-[6-(imidazo[1,2-d][1,2,4]thiadiazol-3-ylamino)hexyl]-2-nitro-4-trifluorobenzenesulfonamide] | 0.77
12 | COc1ccc(Br)cc1S(=O)(=O)NCCCCCCNc1nsc2nccn12 [2-OMe-5-Br-Ph, 5-bromo--N-[6-(imidazo[1,2-d][1,2,4]thiadiazol-3-ylamino)hexyl]-2-methoxybenzenesulfonamide] | 3.7
13 | COc1ccc(OC)c(S(=O)(=O)NCCCCCCNc2nsc3nccn23)c1 [2-OMe-5-Ome-Ph, 2,5-dimethoxy-N-[6-(imidazo[1,2-d][1,2,4]thiadiazol-3-ylamino)hexyl]benzenesulfonamide] | > 5
14 | O=S(=O)(NCCCCCCNc1nsc2nccn12)c1ccc2ccccc2c1 [2-naphthyl, N-[6-(imidazo[1,2-d][1,2,4]thiadiazol-3-ylamino)hexyl]naphthalene-2-sulfonamide] | 1.3
15 | O=C(O)c1cccc(S(=O)(=O)NCCCCCCNc2nsc3nccn23)c1 [3-COOH-Ph, 3-carboxy-N-[6-(imidazo[1,2-d][1,2,4]thiadiazol-3-ylamino)hexyl]benzenesulfonamide] | 13.7

Continued, values first:

Row | IC50 [µM] | Molecule
16 | 7.4 | CCOC(=O)CN(CCCCCCNc1nsc2nccn12)S(=O)(=O)c1cccc2ccccc12 [1 / OEt / 1-naphthyl, Ethyl N-[6-(imidazo[1,2-d][1,2,4]thiadiazol-3-ylamino)hexyl]-N-(1-naphthylsulfonyl) glycinate]
17 | 6.8 | O=C(O)CN(CCCCCCNc1nsc2nccn12)S(=O)(=O)c1cccc2ccccc12 [1 / OH / 1-naphthyl, N-[6-(imidazo[1,2-d][1,2,4]thiadiazol-3-ylamino)hexyl]-N-(1-naphthylsulfonyl)glycine]
18 | 3 | NC(=O)c1ccccc1S(=O)(=O)NCCCCCCNc1nsc2nccn12 [2-CONH2-Ph, 2-({[6-(imidazo[1,2-d][1,2,4]thiadiazol-3-ylamino)hexyl]amino}sulfonyl)benzamide]
19 | 13.8 | CNC(=O)c1ccccc1S(=O)(=O)NCCCCCCNc1nsc2nccn12 [2-CONHMe-Ph, 2-({[6-(imidazo[1,2-d][1,2,4]thiadiazol-3-ylamino)hexyl]amino}sulfonyl)-N-methylbenzamide]
20 | 6.8 | O=C(O)c1ccccc1S(=O)(=O)NCCCCCCNc1nsc2nccn12 [2-COOH-Ph, 2-carboxy-N-[6-(imidazo[1,2-d][1,2,4]thiadiazol-3-ylamino)hexyl]benzenesulfonamide]
21 | 0.6 | O=S(=O)(NCCCCCCNc1nsc2nccn12)c1ccc(F)cc1Cl [2-Cl-4-F-Ph, 2-chloro-4-fluoro-N-[6-(imidazo[1,2-d][1,2,4]thiadiazol-3-ylamino)hexyl]benzenesulfonamide]
22 | 0.95 | Cc1cc(S(=O)(=O)NCCCCCCNc2nsc3nccn23)c(C)cc1Cl [2-Me-4-C1-5-Me-Ph, 4-chloro-2,5-dimethyl-N-[6-(imidazol[1,2-d][1,2,4]thiadiazol-3-ylamino)hexyl]benzenesulfonamide]
23 | 0.42 | O=S(=O)(NCCCCCCNc1nsc2nccn12)c1ccc(Br)cc1OC(F)(F)F [2-OCF3-4-Br, 4-bromo-N-[6-(imidazo[1,2-d][1,2,4]thiadiazol-3-ylamino)hexyl]-2-(trifluoromethoxy)benzenesulfonamide]
24 | 24 | COc1cc(C)ccc1S(=O)(=O)NCCCCCCNc1nsc2nccn12 [2-OMe-4-Me-Ph, N-[6-(imidazol[1,2-d][1,2,4]thiadiazol-3-ylamino)hexyl]-2-methoxy-4-methylbenzenesulfonamide]
25 | 8.6 | NC(=O)CCCN(CCCCCCNc1nsc2nccn12)S(=O)(=O)c1cccc2ccccc12 [3 / NH2 / 1-naphthyl, 4-[[6-(imidazo[1,2-d][1,2,4]thiadiazol-3-ylamino)hexyl](1-naphthylsulfonyl)amino]butanamide]
26 | 4.7 | O=S(=O)(NCCCCCCNc1nsc2nccn12)c1cccc(C(F)(F)F)c1 [3-CF3-Ph, N-[6-(imidazo[1,2-d][1,2,4]thiadiazol-3-ylamino)hexyl]-3-trifluoromethylbenzenesulfonamide]
27 | 0.93 | O=S(=O)(NCCCCCCNc1nsc2nccn12)c1ccc(Br)cc1 [4-Br-Ph, 4-bromo-N-[6-(imidazo[1,2-d][1,2,4]thiadiazol-3-ylamino)hexyl]benzenesulfonamide]
28 | 1.6 | N#Cc1ccc(S(=O)(=O)NCCCCCCNc2nsc3nccn23)cc1 [4-CN-Ph, 4-cyano-N-[6-(imidazo[1,2-d][1,2,4]thiadiazol-3-ylamino)hexyl]benzenesulfonamide]
29 | 11.4 | O=C(O)c1ccc(S(=O)(=O)NCCCCCCNc2nsc3nccn23)cc1 [4-COOH-Ph, 4-carboxy-N-[6-(imidazo[1,2-d][1,2,4]thiadiazol-3-ylamino)hexyl]benzenesulfonamide]
30 | 1.4 | COc1ccc(S(=O)(=O)NCCCCCCNc2nsc3nccn23)cc1 [4-OMe-Ph, N-[6-(imidazo[1,2-d][1,2,4]thiadiazol-3-ylamino)hexyl]-4-methoxybenzenesulfonamide]
